These results are taken from ChEMBL document CHEMBL3392990, “Multifunctional coumarin derivatives: monoamine oxidase B (MAO-B) inhibition, anti-β-amyloid (Aβ) aggregation and metal chelation properties against Alzheimer's disease” (Bioorg Med Chem Lett, 2015).

The target of series [1] is T1, Amine oxidase [flavin-containing] A (Homo sapiens, UniProt P21397).
T1 sequence (P21397 whole entry): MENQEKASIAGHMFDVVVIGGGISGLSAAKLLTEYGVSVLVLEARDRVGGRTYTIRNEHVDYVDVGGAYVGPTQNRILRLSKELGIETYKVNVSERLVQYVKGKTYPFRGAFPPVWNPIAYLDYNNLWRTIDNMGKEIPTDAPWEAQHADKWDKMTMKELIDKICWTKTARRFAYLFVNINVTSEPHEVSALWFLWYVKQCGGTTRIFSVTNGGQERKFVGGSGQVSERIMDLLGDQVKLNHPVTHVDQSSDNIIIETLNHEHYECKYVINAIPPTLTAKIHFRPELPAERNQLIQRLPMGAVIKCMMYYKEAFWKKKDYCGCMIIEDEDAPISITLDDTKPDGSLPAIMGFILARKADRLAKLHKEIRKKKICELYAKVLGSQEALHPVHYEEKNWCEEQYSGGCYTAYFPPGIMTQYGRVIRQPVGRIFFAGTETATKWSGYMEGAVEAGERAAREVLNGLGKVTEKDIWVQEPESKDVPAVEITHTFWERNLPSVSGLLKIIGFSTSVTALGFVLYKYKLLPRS
Briefly: Inhibition of human recombinant MAO-A using p-tyramine as substrate assessed as H2O2 production at 100 uM after 15 mins by fluorescence assay. To be noted: 0.25 h.

The target in series [2] is Amyloid-beta precursor protein (Homo sapiens) (UniProt P05067). Kind of series: Inhibition of amyloid beta (1 to 42) (unknown origin) self-induced aggregation at 20 uM after 46 to 48 hrs by thioflavin-T fluorescence method.
Amyloid-beta precursor protein (Homo sapiens), sequence (P05067 whole entry): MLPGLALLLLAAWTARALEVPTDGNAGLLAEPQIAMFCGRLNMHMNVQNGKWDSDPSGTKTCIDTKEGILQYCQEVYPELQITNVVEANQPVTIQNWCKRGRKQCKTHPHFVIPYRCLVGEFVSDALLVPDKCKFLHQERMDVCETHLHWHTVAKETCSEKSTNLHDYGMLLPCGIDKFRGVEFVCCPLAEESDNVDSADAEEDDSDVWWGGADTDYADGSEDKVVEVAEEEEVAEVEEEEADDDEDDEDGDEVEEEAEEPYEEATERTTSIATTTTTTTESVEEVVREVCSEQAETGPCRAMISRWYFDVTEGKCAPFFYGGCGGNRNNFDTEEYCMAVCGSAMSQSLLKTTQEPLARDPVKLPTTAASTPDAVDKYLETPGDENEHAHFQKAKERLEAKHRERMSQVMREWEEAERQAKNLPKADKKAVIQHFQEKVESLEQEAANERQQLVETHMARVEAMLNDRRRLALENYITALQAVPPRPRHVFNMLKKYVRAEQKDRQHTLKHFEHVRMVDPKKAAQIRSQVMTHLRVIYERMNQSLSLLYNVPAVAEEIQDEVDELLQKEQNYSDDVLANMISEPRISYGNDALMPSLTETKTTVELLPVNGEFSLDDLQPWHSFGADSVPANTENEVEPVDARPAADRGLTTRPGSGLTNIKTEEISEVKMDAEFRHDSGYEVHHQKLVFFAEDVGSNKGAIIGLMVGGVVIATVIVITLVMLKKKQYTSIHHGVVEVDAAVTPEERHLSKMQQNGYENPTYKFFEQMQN
Series [3] addresses T2, Amine oxidase [flavin-containing] B (Homo sapiens, UniProt P27338).
T2 sequence (P27338 whole entry): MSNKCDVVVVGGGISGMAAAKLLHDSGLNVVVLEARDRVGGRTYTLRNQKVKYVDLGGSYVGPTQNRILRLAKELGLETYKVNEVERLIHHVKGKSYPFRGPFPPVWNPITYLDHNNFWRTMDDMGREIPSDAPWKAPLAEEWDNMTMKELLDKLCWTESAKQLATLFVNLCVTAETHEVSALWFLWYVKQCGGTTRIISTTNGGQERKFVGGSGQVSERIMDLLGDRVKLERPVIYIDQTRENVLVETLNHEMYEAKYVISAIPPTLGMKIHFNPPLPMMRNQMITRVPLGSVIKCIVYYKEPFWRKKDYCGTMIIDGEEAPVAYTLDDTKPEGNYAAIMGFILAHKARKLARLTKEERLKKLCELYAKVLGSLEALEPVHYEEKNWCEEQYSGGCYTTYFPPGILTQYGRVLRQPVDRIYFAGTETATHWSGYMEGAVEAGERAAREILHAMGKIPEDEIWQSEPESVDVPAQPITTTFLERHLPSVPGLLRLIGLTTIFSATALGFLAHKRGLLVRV
Kind of series: Inhibition of human recombinant MAO-B using p-tyramine as substrate assessed as H2O2 production after 15 mins by fluorescence assay.

The nature of series [4]: Permeability of the compound after 16 hrs by PAMPA. The class given is ADME. To be noted: read-out: Peff.
Series [5] is described as follows: Cytotoxicity against rat PC12 cells assessed as cell viability at 1 to 100 uM after 24 hrs by MTT assay. To be noted: pc-12, 24 h. Type of series: cell-based.
The target in series [6] is T2, Amine oxidase [flavin-containing] B. Briefly: Ratio of pargyline IC50 to compound IC50 for human recombinant MAO-B.
Series [7] can be described thus: Cytotoxicity against human SH-SY5Y cells assessed as cell viability at 1 to 100 uM after 24 hrs by MTT assay. The class given is cell-based.
A short description of series [8]: Metal chelating activity of the compound assessed as formation of copper complex at 35 uM by UV-Vis spectrophotometry. Type of series: physicochemical.
Series [9] deals with T2, Amine oxidase [flavin-containing] B. Kind of series: Irreversible inhibition of human MAO-B at 2 times IC50 using p-tyramine as substrate assessed as H2O2 production after 0 to 60 mins.

SMILES strings stand for the structures. pIC50: −log10 of the molar value.

As to `O=c1oc2cc(NCc3ccccc3O)ccc2c2c1CCCC2`, the inhibition at 100 µM in series [1] came to 53.6%. Besides, the inhibition in series [2] amounted to 43.7%. Also, in series [3], the pIC50 is 5.91.

As for `O=c1oc2cc(/N=C/c3ccc(O)cc3O)ccc2c2c1CCCC2`, the inhibition at 100 µM in series [1] worked out at 22.6%. In series [2], this compound came in with an inhibition of 58.5%. In [3], the negative logarithm of the IC50 (pIC50) was 5.47.

With `Cc1c(Cl)c(=O)oc2cc(/N=C/c3ccc(O)cc3O)ccc12`, the inhibition in series [2] was found to be 60.2%.

In series [2], `Cc1ccc(/C=N/c2ccc3c(C)cc(=O)oc3c2)c(O)c1` registered an inhibition of 49.4%.

`Cc1c(Cl)c(=O)oc2cc(/N=C/c3ccccc3O)ccc12`: the inhibition in series [2] is 49.3%.

On to `C[C@]12C[C@H](O)[C@H]3[C@@H](CCC4=CC(=O)CC[C@@]43C)[C@@H]1CC[C@@H]2C(=O)CO` [CORTICOSTERONE], for which the Papp at 16 h in series [4] stood at 1.09 ×10⁻⁶ cm/s.

Consider `O=c1oc2cc(/N=C/c3ccccc3O)ccc2c2c1CCC2`, for which the inhibition at 100 µM in series [1] amounted to 3.5%. In addition, the Activity result in [5] is on record as “Non-toxic”; in series [7], “Non-toxic”; in series [8] it was “Active”. This compound also showed an inhibition in series [2] of 52.9%. Further, the “Ratio IC50” value in [6] was found to be 2. For the same compound, the negative-log IC50 (pIC50) in [3] is 7.09. The Papp at 16 h in [4] is 8.9 ×10⁻⁶ cm/s. Further, the “inhibition (INH)” value in series [9] is “Active”.

With `C[C@]12CC[C@@H]3c4ccc(O)cc4CC[C@H]3[C@@H]1CC[C@@H]2O` [ESTRADIOL], the Papp at 16 h in [4] came out at 8.33 ×10⁻⁶ cm/s.

`Cc1c(Cl)c(=O)oc2cc(NCc3ccccc3O)ccc12` had an inhibition in [2] of 47.6%.

As for `Cc1c(C)c2ccc(/N=C/c3ccccc3O)cc2[nH]c1=O`, the inhibition at 100 µM in [1] is 17.7%. Also, the inhibition in [2] turned out to be 49.1%. Besides, the pIC50 in [3] was 5.77.

Turning to `O=c1oc2cc(/N=C/c3ccccc3O)ccc2c2c1CCCC2`, the inhibition at 100 µM in series [1] is 17.2%. The inhibition in [2] is 53.7%. Also, the negative-log IC50 (pIC50) in series [3] is 6.08.

Turning to `NCCc1ccc(O)c(O)c1` [DOPAMINE], the Papp at 16 h in series [4] worked out at 0.83 ×10⁻⁶ cm/s.

The compound `Cc1cc(=O)oc2cc(/N=C/c3ccc(O)cc3O)ccc12` yielded an inhibition in [2] of 50.3%.

Regarding `CN1C(C(=O)Nc2ccccn2)=C(O)c2ccccc2S1(=O)=O` [PIROXICAM], in series [4], the Papp at 16 h stood at 1.72 ×10⁻⁶ cm/s.

In series [2], `Cc1cc(=O)[nH]c2cc(NCc3ccccc3O)ccc12` had an inhibition of 32.6%.

`COc1ccc(/C=N/c2ccc3c(C)cc(=O)oc3c2)c(O)c1`: the inhibition in [2] was 50.2%.

`Cc1c(C)c2ccc(/N=C/c3ccc(O)cc3O)cc2oc1=O` had an inhibition in [2] of 57.6%. Further, the Papp at 16 h in series [4] amounted to 6.7 ×10⁻⁶ cm/s.

Compound `Cc1c(C)c2ccc(NCc3ccccc3O)cc2oc1=O` yielded an inhibition in series [2] of 47.7%. For the same compound, the Papp at 16 h in [4] came out at 12.3 ×10⁻⁶ cm/s.

In the case of `Cc1cc(=O)oc2cc(NCc3ccccc3O)ccc12`, the inhibition at 100 µM in series [1] came to 39.4%. For the same compound, the inhibition in [2] worked out at 36.1%. In addition, the pIC50 in series [3] was 4.70.

For `Cc1cc(=O)oc2cc(/N=C/c3ccc(Br)cc3O)ccc12`, the inhibition in [2] was determined as 51.5%.

On to `O=c1oc2cc(/N=C/c3ccc(O)cc3O)ccc2c2c1CCC2`, for which the inhibition at 100 µM in series [1] was 67.6%. Further, in series [2], the inhibition is 56.4%. Moreover, the pIC50 in [3] was 6.66. The Papp at 16 h in series [4] is 4.7 ×10⁻⁶ cm/s.

Turning to `Cc1cc(=O)[nH]c2cc(/N=C/c3ccccc3O)ccc12`, the inhibition at 100 µM in series [1] came to 54.2%. In series [2], this compound had an inhibition of 35.6%. In addition, the pIC50 in series [3] is 4.91.

On to `Cc1cc(=O)oc2cc(/N=C/c3ccccc3O)ccc12`, for which the inhibition at 100 µM in series [1] stood at 47.2%. In addition, the inhibition in [2] was found to be 44.8%. Also, the pIC50 in series [3] is 6.14.

Regarding `O=c1oc2cc(NCc3ccccc3O)ccc2c2c1CCC2`, the inhibition at 100 µM in series [1] was 23.6%. The inhibition in series [2] was determined as 41.6%. For the same compound, the pIC50 in series [3] was 5.03.

In [2], `Cc1c(C)c2ccc(/N=C/c3ccccc3O)cc2oc1=O` gave an inhibition of 53.9%. Also, in [4], the Papp at 16 h stood at 10.6 ×10⁻⁶ cm/s.
